Patent US20150344466A1 (SUMITOMO CHEMICAL COMPANY, LIMITED, priority 2013, published 2015)

Key:
Assay type in all cases: in vivo
Blattella germanica [1] = experiment: Knockdown spray test on Blattella germanica, 2.0% w/v oil formulation (Test Example 1); conditions: topical, 0.25 h, active ingredient 2.0% w/v, 1.5 ml sprayed, within 15 minutes, read-out: knockdown rate of the test insects within 15 minutes
Method: (§1) Ten Blattella germanica (5 males and 5 females) were released in a test container (8.75 cm in diameter, 7.5 cm in height, and the bottom made of 16 mesh metallic wire) with the inner wall on which butter was applied, and the container was placed on the bottom of a test chamber (bottom: 46 cm×46 cm, height: 70 cm). From a height of 60 cm above the upper surface of the container, 1.5 ml of the test drug solution was sprayed using a spray gun (a spraying pressure of 0.42 kg/cm^2). Thirty seconds after spraying, the container was taken out from the test chamber, and after 2 minutes, 5 minutes and 15 minutes, the number of knocked-down insects was counted to obtain a knockdown rate. The knockdown rate was calculated by the following equation.
(§2) Knockdown Rate (%)=(Number of Knocked-down Insects/Number of Tested Insects)×100

Culex pipiens pallens = experiment: Knockdown spray test on adult Culex pipiens pallens (Test Example 4); conditions: topical, 0.25 h, active ingredient 0.1% w/v, 0.5 ml sprayed, within 15 minutes, read-out: knockdown rate of the test insects within 15 minutes
Procedure, shortened: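 Knockdown counts were taken 2, 5 and 15 min after spraying and expressed as percent of the 10 adults tested. For the spray, 0.5 ml of solution was applied by spray gun (0.4 kg/cm^2) from 30 cm above a gauze-covered cup in a test chamber; the cup was taken out right after spraying.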

Plutella xylostella = experiment: Foliar spray test on Plutella xylostella on cabbage (Test Example 10); conditions: 120 h, third instar larvae of Plutella xylostella on cabbage, 500 ppm spray 20 ml/cup, after five days, read-out: controlling value
Method: On the other hand, cabbage was planted in a polyethylene cup, and grown until the third-fourth true leaf was spread. The test spray solution was sprayed to the cabbage at a ratio of 20 ml/cup. After the drug solution sprayed on the cabbage was dried, 10 third instar larvae of Plutella xylostella were allowed to parasitize the cabbage. After five days, the number of Plutella xylostella was investigated, and the controlling value was calculated according to the following standard. Controlling value (%)={1−(Cb×Tai)/(Cai×Tb)}×100 In the equation, the symbols represent as follows. Cb: the number of insects in a non-treated section before treatment Cai: the number of insects in a non-treated section on observation Tb: the number of insects in a treated section before treatment Tai: the number of insects in a treated section on observation

Blattella germanica [2] = experiment: Knockdown spray test on Blattella germanica, 0.1% w/v oil formulation (Test Example 2); conditions: topical, 0.25 h, active ingredient 0.1% w/v, 1.5 ml sprayed, within 15 minutes, read-out: knockdown rate of the test insects within 15 minutes
Method: as §1, §2

Musca domestica = experiment: Filter paper/sucrose bait death rate test on Musca domestica (Test Example 5); conditions: female imagoes of Musca domestica, 0.7 ml on filter paper, after 24 hours
Method: A filter paper having a diameter of 5.5 cm was spread on the bottom of a polyethylene cup having the same diameter and 0.7 ml of the test drug solution was added dropwise onto the filter paper, and 30 mg of sucrose was uniformly placed as bait.
Into the polyethylene cup, 10 female imagoes of Musca domestica were released, and the cup was sealed with a lid. After 24 hours, the life and death of Musca domestica was examined, and the death rate was calculated. The death rate was calculated by the following equation.
Death rate (%)=(Number of dead insects/Number of tested insects)×100

CCCc1cc(C(=O)NCC2CCOC2)no1 (centres unmarked) [(10), N-(tetrahydrofuran-3-ylmethyl)-5-propylisoxazole-3-carboxamide]
pest or weed control at 2 % strength (Blattella germanica [1]): ≥ 80%

CCCCCc1cc(C(=O)NCC2CCOC2)no1 (centres unmarked) [(12), N-(tetrahydrofuran-3-ylmethyl)-5-pentylisoxazole-3-carboxamide]
pest or weed control at 2 % strength (Blattella germanica [1]): ≥ 80%
pest or weed control at 0.1 % strength (Culex pipiens pallens): ≥ 80%

O=C(NCC1CCOC1)c1cc(COC2CCCC2)on1 (centres unmarked) [(19), N-(tetrahydrofuran-3-ylmethyl)-5-cyclopentyloxymethylisoxazole-3-carboxamide]
pest or weed control at 2 % strength (Blattella germanica [1]): ≥ 80%

O=C(NCC1CCOC1)c1cc(COCCc2ccccc2)on1 (centres unmarked) [(25), N-(tetrahydrofuran-3-ylmethyl)-5-(2-phenylethyl)oxymethylisoxazole-3-carboxamide]
pest or weed control at 2 % strength (Blattella germanica [1]): ≥ 80%
pest or weed control at 0.1 % strength (Culex pipiens pallens): ≥ 80%

CC(OCc1cc(C(=O)NCC2CCOC2)no1)c1ccc2ccccc2c1 (centres unmarked) [(28), N-(tetrahydrofuran-3-ylmethyl)-5-[1-(2-naphthyl)ethyl]oxymethylisoxazole-3-carboxamide]
pest or weed control at 2 % strength (Blattella germanica [1]): ≥ 80%
pest or weed control at 0.1 % strength (Culex pipiens pallens): ≥ 80%

COCc1c(F)c(F)c(COCc2cc(C(=O)NCC3CCOC3)no2)c(F)c1F (centres unmarked) [(29), N-(tetrahydrofuran-3-ylmethyl)-5-(4-methoxymethyl-2,3,5,6-tetrafluorobenzyl)oxymethylisoxazole-3-carboxamide]
pest or weed control at 2 % strength (Blattella germanica [1]): ≥ 80%
pest or weed control at 0.1 % strength (Culex pipiens pallens): ≥ 80%

O=C(NCC1CCCO1)c1cc(COCc2ccccc2)on1 (centres unmarked) [(32), N-(tetrahydrofuran-2-ylmethyl)-5-benzyloxymethylisoxazole-3-carboxamide]
pest or weed control at 2 % strength (Blattella germanica [1]): ≥ 80%
pest or weed control at 0.1 % strength (Culex pipiens pallens): ≥ 80%

O=C(NCC1CCCOC1)c1cc(COCc2ccccc2)on1 (centres unmarked) [(37), N-(tetrahydropyran-3-ylmethyl)-5-benzyloxymethylisoxazole-3-carboxamide]
pest or weed control at 2 % strength (Blattella germanica [1]): ≥ 80%
pest or weed control at 0.1 % strength (Culex pipiens pallens): ≥ 80%

CCC1(CNC(=O)c2cc(COCc3ccccc3)on2)COCOC1 [(38), N-[5-ethyl-5-(1,3-dioxanylmethyl)]-5-benzyloxymethylisoxazole-3-carboxamide]
pest or weed control at 2 % strength (Blattella germanica [1]): ≥ 80%
pest or weed control at 0.1 % strength (Culex pipiens pallens): ≥ 80%

Cc1cccc(COCc2cc(C(=O)NCC3CCOCC3)no2)c1 [(83), N-(tetrahydropyran-4-ylmethyl)-5-(3-methylbenzyloxymethyl)isoxazole-3-carboxamide]
pest or weed control at 500 ppm (Plutella xylostella): ≥ 90%
pest or weed control at 0.1 % strength (Culex pipiens pallens): ≥ 80%
pest or weed control at 0.1 % strength (Blattella germanica [2]): ≥ 80%

O=C(NCC1CCOC1)c1cc(COCc2cccc(Oc3ccccc3)c2)on1 (centres unmarked) [(114), N-(tetrahydrofuran-3-ylmethyl)-5-(3-phenoxybenzyloxymethyl) isoxazole-3-carboxamide]
pest or weed control at 2 % strength (Blattella germanica [1]): ≥ 80%
pest or weed control at 0.1 % strength (Culex pipiens pallens): ≥ 80%

O=C(NCC1CCOC1)c1cc(COCc2cccc(COCc3ccccc3)c2)on1 (centres unmarked) [(121), N-(tetrahydrofuran-3-ylmethyl)-5-(3-benzyloxymethylbenzyloxymethyl)isoxazole-3-carboxamide]
pest or weed control at 500 ppm (Musca domestica): ≥ 90%
pest or weed control at 0.1 % strength (Culex pipiens pallens): ≥ 80%
pest or weed control at 0.1 % strength (Blattella germanica [2]): ≥ 80%

O=C(NCC1CCOC1)c1cc(COCCOc2ccccc2)on1 (centres unmarked) [(149), N-(tetrahydrofuran-3-ylmethyl)-5-(2-phenoxyethoxymethyl)isoxazole-3-carboxamide]
pest or weed control at 2 % strength (Blattella germanica [1]): ≥ 80%
pest or weed control at 0.1 % strength (Culex pipiens pallens): ≥ 80%
pest or weed control at 0.1 % strength (Blattella germanica [2]): ≥ 80%

O=C(NCC1CCOCC1)c1cc(COc2cccc(F)c2)on1 [(195), N-(tetrahydropyran-4-ylmethyl)-5-(3-fluorophenoxymethyl)isoxazole-3-carboxamide]
pest or weed control at 500 ppm (Musca domestica): ≥ 90%
pest or weed control at 0.1 % strength (Culex pipiens pallens): ≥ 80%
pest or weed control at 0.1 % strength (Blattella germanica [2]): ≥ 80%

O=C(NCC1CCOC1)c1cc(COCc2cc(F)cc(F)c2)on1 (centres unmarked) [(266), 14-(tetrahydrofuran-3-ylmethyl)-5-(3,5-difluorobenzyloxymethyl)isoxazole-3-carboxamide]
pest or weed control at 500 ppm (Musca domestica): ≥ 90%
pest or weed control at 0.1 % strength (Culex pipiens pallens): ≥ 80%
pest or weed control at 0.1 % strength (Blattella germanica [2]): ≥ 80%

O=C(NCC1CCOC1)c1cc(COCc2cc(F)c(F)c(F)c2)on1 (centres unmarked) [(267), N-(tetrahydrofuran-3-ylmethyl)-5-(3,4,5-trifluorobenzyloxymethyl)isoxazole-3-carboxamide]
pest or weed control at 500 ppm (Musca domestica): ≥ 90%
pest or weed control at 0.1 % strength (Culex pipiens pallens): ≥ 80%
pest or weed control at 0.1 % strength (Blattella germanica [2]): ≥ 80%

O=C(NCC1CCOC1)c1cc(COCc2cc(F)cc(Cl)c2)on1 (centres unmarked) [(268), N-(tetrahydrofuran-3-ylmethyl)-5-(3-chloro-5-fluorobenzyloxymethyl)isoxazole-3-carboxamide]
pest or weed control at 500 ppm (Musca domestica): ≥ 90%
pest or weed control at 0.1 % strength (Culex pipiens pallens): ≥ 80%
pest or weed control at 0.1 % strength (Blattella germanica [2]): ≥ 80%

O=C(NCC1CCOC1)c1cc(COCc2ccc(F)c(F)c2F)on1 (centres unmarked) [(270), N-(tetrahydrofuran-3-ylmethyl)-5-(2,3,4-trifluorobenzyloxymethyl)isoxazole-3-carboxamide]
pest or weed control at 500 ppm (Musca domestica): ≥ 90%
pest or weed control at 0.1 % strength (Culex pipiens pallens): ≥ 80%
pest or weed control at 0.1 % strength (Blattella germanica [2]): ≥ 80%

O=C(NCC1CCOC1)c1cc(COCc2cccc(F)c2F)on1 (centres unmarked) [(274), N-(tetrahydrofuran-3-ylmethyl)-5-(2,3-difluorobenzyloxymethyl)isoxazole-3-carboxamide]
pest or weed control at 500 ppm (Musca domestica): ≥ 90%
pest or weed control at 0.1 % strength (Culex pipiens pallens): ≥ 80%
pest or weed control at 0.1 % strength (Blattella germanica [2]): ≥ 80%

O=C(NCC1CCOC1)c1cc(COCc2ccc(F)cc2F)on1 (centres unmarked) [(278), N-(tetrahydrofuran-3-ylmethyl)-5-(2,4-difluorobenzyloxymethyl)isoxazole-3-carboxamide]
pest or weed control at 500 ppm (Musca domestica): ≥ 90%
pest or weed control at 0.1 % strength (Culex pipiens pallens): ≥ 80%
pest or weed control at 0.1 % strength (Blattella germanica [2]): ≥ 80%

Cc1c(C(=O)NCC2CCOC2)noc1COCc1ccccc1F (centres unmarked) [(286), N-(tetrahydrofuran-3-ylmethyl)-5-(2-fluorobenzyloxymethyl)-4-methylisoxazole-3-carboxamide]
pest or weed control at 500 ppm (Musca domestica): ≥ 90%
pest or weed control at 0.1 % strength (Culex pipiens pallens): ≥ 80%
pest or weed control at 0.1 % strength (Blattella germanica [2]): ≥ 80%

O=C(NCC1CCOC1)c1cc(Cc2cc(F)cc(F)c2)on1 (centres unmarked) [(305), N-(tetrahydrofuran-3-ylmethyl)-5-(3,5-difluorobenzyl)isoxazole-3-carboxamide]
pest or weed control at 500 ppm (Musca domestica): ≥ 90%
pest or weed control at 0.1 % strength (Culex pipiens pallens): ≥ 80%
pest or weed control at 0.1 % strength (Blattella germanica [2]): ≥ 80%

O=C(NCC1CCOC1)c1cc(Cc2ccsc2)on1 (centres unmarked) [(309), N-(tetrahydrofuran-3-ylmethyl)-5-(3-thienylmethyl)isoxazole-3-carboxamide]
pest or weed control at 500 ppm (Musca domestica): ≥ 90%
pest or weed control at 0.1 % strength (Culex pipiens pallens): ≥ 80%
pest or weed control at 0.1 % strength (Blattella germanica [2]): ≥ 80%

COc1ccc(Cc2cc(C(=O)NCC3CCOC3)no2)cc1 (centres unmarked) [(314), N-(tetrahydrofuran-3-ylmethyl)-5-(4-methoxybenzyl)isoxazole-3-carboxamide]
pest or weed control at 500 ppm (Musca domestica): ≥ 90%
pest or weed control at 0.1 % strength (Culex pipiens pallens): ≥ 80%
pest or weed control at 0.1 % strength (Blattella germanica [2]): ≥ 80%

O=C(NCC1CCOC1)c1cc(Cc2ccc(F)cc2)on1 (centres unmarked) [(319), N-(tetrahydrofuran-3-ylmethyl)-5-(4-fluorobenzyl)isoxazole-3-carboxamide]
pest or weed control at 500 ppm (Musca domestica): ≥ 90%
pest or weed control at 0.1 % strength (Culex pipiens pallens): ≥ 80%
pest or weed control at 0.1 % strength (Blattella germanica [2]): ≥ 80%

O=C(NCC1CCOC1)c1cc(Cc2ccc(Cl)cc2)on1 (centres unmarked) [(322), N-(tetrahydrofuran-3-ylmethyl)-5-(4-chlorobenzyl)isoxazole-3-carboxamide]
pest or weed control at 500 ppm (Musca domestica): ≥ 90%
pest or weed control at 0.1 % strength (Culex pipiens pallens): ≥ 80%
pest or weed control at 0.1 % strength (Blattella germanica [2]): ≥ 80%

O=C(NCC1CCOC1)c1cc(Cc2ccc(F)c(F)c2F)on1 (centres unmarked) [(324), N-(tetrahydrofuran-3-ylmethyl)-5-(2,3,4-trifluorobenzyl)isoxazole-3-carboxamide]
pest or weed control at 500 ppm (Musca domestica): ≥ 90%
pest or weed control at 0.1 % strength (Culex pipiens pallens): ≥ 80%
pest or weed control at 0.1 % strength (Blattella germanica [2]): ≥ 80%

O=C(NCC1COC1)c1cc(COCc2ccccc2)on1 [(337), N-(oxetan-3-ylmethyl)-5-benrzyloxymethylisoxazole-3-carboxamide]
pest or weed control at 2 % strength (Blattella germanica [1]): ≥ 80%
pest or weed control at 0.1 % strength (Culex pipiens pallens): ≥ 80%
